Reference: US8883745B2, “C—glycolipids with enhanced Th-1 profile” (New York University, priority 2006, dated 2014)

test system: IFN-γ; assay: IFN-γ levels in sera upon i.v. glycolipid administration to BALB/c mice (ELISA); format: in vivo; parameters: IFN-γ levels, test 1 / IFN-γ levels, test 2 / IFN-γ levels, average / IFN-γ levels, Total: unit not given here; conditions: BALB/c, ratio calculated from Tables 1-6
Description: (§1) Five- to six-week-old female C57BL/6 mice and BALB/c mice were purchased from Taconic. Each glycolipid was stored at 1 mg/ml in 100% DMSO. Mice were injected intravenously with 1 μg of each glyocolipid diluted in 200 μL sterile phosphate buffered saline (PBS). At indicated time points, sera were collected from each animal, and concentrations of IFN-γ, IL-4, and IL-12 in the sera were evaluated by enzyme-linked immunosorbent assay (ELISA). Serum concentrations of IFN-γ, IL-4, and IL-12 were evaluated using an ELISA kit (eBioscience, San Diego, Calif.). Briefly, 96 well flat-bottom ELISA plates (NUNC) were coated with capture antibody according to the manufacture's recommendation and incubated overnight at 4° C. The plates were washed with PBS+0.05% Tween 20 (PBS-T), then incubated with manufacturer provided blocking solution for 1 hr at room temperature to block non-specific binding sites. After washing with PBS-T, sera diluted 1:10 was added to the wells and incubated for 2 hrs at room temperature. Plates were then incubated at room temperature for 1 hr with biotintylated detection antibody, washed, incubated with avidin conjugated to horse radish peroxidase (HRP) for 30 min at room temperature, washed, and finally incubated with tetramethylbenzidine substrate solution in the dark for 10 minutes at room temperature. The antibodies, avidin-HRP, and substrate solution were all diluted according to the manufacture's recommendation. Reactions were stopped with 2.0N sulfuric acid and the cytokine concentration in each well was determined by comparing the absorbance at 450 nm in each well to known standards. The levels of Th1- and Th2-type cytokines were determined in two different genetic backgrounds, i.e., in C57BL/6 mice and BALB/c mice. The following compounds were administered: A=compound (A-1 trans-conformer), B=compound (A-2), C=compound (A-3), D=compound (A-4), E=compound (A-5), Z=control (PBS alone), CRONY=α-C-GalCer, KRN=α-GalCer, GCK109 (A-1 trans-conformer), GCK151 (A-1 cis-conformer), GCK152 (A-7). The levels of cytokines were measured at 0, 2, 6, 12, 24, 48, and 72 hours after the compound administration. The levels of Th1-type cytokines IFN-γ and IL-12 are summarized in FIGS. 2A-C and 3A-C, respectively. Table 7 provides IFN-γ/IL-4 and IL-12/IL-4 ratios for various compounds, which can be used as indicators of their ability to selectively stimulate Th1-type immune responses.

| SMILES | IFN-γ/IL-4 (BALB/c) |
| --- | --- |
| CCCCCCCCCCCCCCCCC/C=C/CCCCCCCCC(=O)N[C@@H](CC[C@H]1O[C@H](CO)[C@H](O)[C@H](O)[C@H]1O)[C@H](O)[C@H](O)CCCCCCCCCCCCCC [A-3] | 40 |

same assay, conditions: BALB/c, serum, hour 0

| SMILES | IFN-γ levels, average | IFN-γ levels, test 1 | IFN-γ levels, test 2 |
| --- | --- | --- | --- |
| CCCCCCCCCCCCCCCCC/C=C/CCCCCCCCC(=O)N[C@@H](CC[C@H]1O[C@H](CO)[C@H](O)[C@H](O)[C@H]1O)[C@H](O)[C@H](O)CCCCCCCCCCCCCC [A-3] | 27 | 27 | 27 |

same assay, conditions: BALB/c, serum, hour 2

| SMILES | IFN-γ levels, average | IFN-γ levels, test 1 | IFN-γ levels, test 2 |
| --- | --- | --- | --- |
| CCCCCCCCCCCCCCCCC/C=C/CCCCCCCCC(=O)N[C@@H](CC[C@H]1O[C@H](CO)[C@H](O)[C@H](O)[C@H]1O)[C@H](O)[C@H](O)CCCCCCCCCCCCCC [A-3] | 163 | 137 | 189 |

same assay, conditions: BALB/c, serum, hour 6

| SMILES | IFN-γ levels, average | IFN-γ levels, test 1 | IFN-γ levels, test 2 |
| --- | --- | --- | --- |
| CCCCCCCCCCCCCCCCC/C=C/CCCCCCCCC(=O)N[C@@H](CC[C@H]1O[C@H](CO)[C@H](O)[C@H](O)[C@H]1O)[C@H](O)[C@H](O)CCCCCCCCCCCCCC [A-3] | 1172 | 1072 | 1272 |

same assay, conditions: BALB/c, serum, hour 12

| SMILES | IFN-γ levels, average | IFN-γ levels, test 1 | IFN-γ levels, test 2 |
| --- | --- | --- | --- |
| CCCCCCCCCCCCCCCCC/C=C/CCCCCCCCC(=O)N[C@@H](CC[C@H]1O[C@H](CO)[C@H](O)[C@H](O)[C@H]1O)[C@H](O)[C@H](O)CCCCCCCCCCCCCC [A-3] | 3938.5 | 3891 | 3986 |

same assay, conditions: BALB/c, serum, hour 24

| SMILES | IFN-γ levels, average | IFN-γ levels, test 1 | IFN-γ levels, test 2 |
| --- | --- | --- | --- |
| CCCCCCCCCCCCCCCCC/C=C/CCCCCCCCC(=O)N[C@@H](CC[C@H]1O[C@H](CO)[C@H](O)[C@H](O)[C@H]1O)[C@H](O)[C@H](O)CCCCCCCCCCCCCC [A-3] | 15700 | 14100 | 17300 |

same assay, conditions: BALB/c, serum, hour 48

| SMILES | IFN-γ levels, average | IFN-γ levels, test 1 | IFN-γ levels, test 2 |
| --- | --- | --- | --- |
| CCCCCCCCCCCCCCCCC/C=C/CCCCCCCCC(=O)N[C@@H](CC[C@H]1O[C@H](CO)[C@H](O)[C@H](O)[C@H]1O)[C@H](O)[C@H](O)CCCCCCCCCCCCCC [A-3] | 224.5 | 231 | 218 |

same assay, conditions: BALB/c, serum, hour 72

| SMILES | IFN-γ levels, average | IFN-γ levels, test 1 | IFN-γ levels, test 2 |
| --- | --- | --- | --- |
| CCCCCCCCCCCCCCCCC/C=C/CCCCCCCCC(=O)N[C@@H](CC[C@H]1O[C@H](CO)[C@H](O)[C@H](O)[C@H]1O)[C@H](O)[C@H](O)CCCCCCCCCCCCCC [A-3] | 61 | 62 | 60 |

same assay, conditions: BALB/c, serum, total over hours 0-72

| SMILES | IFN-γ levels, Total |
| --- | --- |
| CCCCCCCCCCCCCCCCC/C=C/CCCCCCCCC(=O)N[C@@H](CC[C@H]1O[C@H](CO)[C@H](O)[C@H](O)[C@H]1O)[C@H](O)[C@H](O)CCCCCCCCCCCCCC [A-3] | 21287 |

test system: IL-12; assay: IL-12 levels in sera upon i.v. glycolipid administration to BALB/c mice (ELISA); format: in vivo; parameters: IL-12 levels, test 1 / IL-12 levels, test 2 / IL-12 levels, average / IL-12 levels, Total: unit not given here; conditions: ratio calculated from Tables 1-6
Description: as §1

| SMILES | IL-12/IL-4 (BALB/c) |
| --- | --- |
| CCCCCCCCCCCCCCCCC/C=C/CCCCCCCCC(=O)N[C@@H](CC[C@H]1O[C@H](CO)[C@H](O)[C@H](O)[C@H]1O)[C@H](O)[C@H](O)CCCCCCCCCCCCCC [A-3] | 9 |

same assay, conditions: serum, hour 0

| SMILES | IL-12 levels, average | IL-12 levels, test 1 | IL-12 levels, test 2 |
| --- | --- | --- | --- |
| CCCCCCCCCCCCCCCCC/C=C/CCCCCCCCC(=O)N[C@@H](CC[C@H]1O[C@H](CO)[C@H](O)[C@H](O)[C@H]1O)[C@H](O)[C@H](O)CCCCCCCCCCCCCC [A-3] | 5 | 5 | 5 |

same assay, conditions: serum, hour 2

| SMILES | IL-12 levels, average | IL-12 levels, test 1 | IL-12 levels, test 2 |
| --- | --- | --- | --- |
| CCCCCCCCCCCCCCCCC/C=C/CCCCCCCCC(=O)N[C@@H](CC[C@H]1O[C@H](CO)[C@H](O)[C@H](O)[C@H]1O)[C@H](O)[C@H](O)CCCCCCCCCCCCCC [A-3] | 240 | 362 | 118 |

same assay, conditions: serum, hour 6

| SMILES | IL-12 levels, average | IL-12 levels, test 1 | IL-12 levels, test 2 |
| --- | --- | --- | --- |
| CCCCCCCCCCCCCCCCC/C=C/CCCCCCCCC(=O)N[C@@H](CC[C@H]1O[C@H](CO)[C@H](O)[C@H](O)[C@H]1O)[C@H](O)[C@H](O)CCCCCCCCCCCCCC [A-3] | 1384.5 | 1356 | 1413 |

same assay, conditions: serum, hour 12

| SMILES | IL-12 levels, average | IL-12 levels, test 1 | IL-12 levels, test 2 |
| --- | --- | --- | --- |
| CCCCCCCCCCCCCCCCC/C=C/CCCCCCCCC(=O)N[C@@H](CC[C@H]1O[C@H](CO)[C@H](O)[C@H](O)[C@H]1O)[C@H](O)[C@H](O)CCCCCCCCCCCCCC [A-3] | 3010.5 | 3256 | 2765 |

same assay, conditions: serum, hour 24

| SMILES | IL-12 levels, average | IL-12 levels, test 1 | IL-12 levels, test 2 |
| --- | --- | --- | --- |
| CCCCCCCCCCCCCCCCC/C=C/CCCCCCCCC(=O)N[C@@H](CC[C@H]1O[C@H](CO)[C@H](O)[C@H](O)[C@H]1O)[C@H](O)[C@H](O)CCCCCCCCCCCCCC [A-3] | 161 | 134 | 188 |

same assay, conditions: serum, hour 48

| SMILES | IL-12 levels, average | IL-12 levels, test 1 | IL-12 levels, test 2 |
| --- | --- | --- | --- |
| CCCCCCCCCCCCCCCCC/C=C/CCCCCCCCC(=O)N[C@@H](CC[C@H]1O[C@H](CO)[C@H](O)[C@H](O)[C@H]1O)[C@H](O)[C@H](O)CCCCCCCCCCCCCC [A-3] | 0 | 0 | 0 |

same assay, conditions: serum, hour 72

| SMILES | IL-12 levels, average | IL-12 levels, test 1 | IL-12 levels, test 2 |
| --- | --- | --- | --- |
| CCCCCCCCCCCCCCCCC/C=C/CCCCCCCCC(=O)N[C@@H](CC[C@H]1O[C@H](CO)[C@H](O)[C@H](O)[C@H]1O)[C@H](O)[C@H](O)CCCCCCCCCCCCCC [A-3] | 75.5 | 0 | 151 |

same assay, conditions: serum, total over hours 0-72

| SMILES | IL-12 levels, Total |
| --- | --- |
| CCCCCCCCCCCCCCCCC/C=C/CCCCCCCCC(=O)N[C@@H](CC[C@H]1O[C@H](CO)[C@H](O)[C@H](O)[C@H]1O)[C@H](O)[C@H](O)CCCCCCCCCCCCCC [A-3] | 4878 |
